Source: US5288709A, “Erythromycin derivatives” (priority 1991, dated 1994)
In brackets after ≈: the same amount, converted by molar mass. Like-named read-outs stand apart in the source and are kept apart here.

Legend:
Assay in all cases: In-vitro antimicrobial activity primary screen (agar dilution MIC)
Assay type in all cases: cell-based
[1] = tested on: Acinetobacter SP CMX 669
Description: (§1) The antimicrobial spectra of several of the compounds of the present invention were tested as described below.
(§2) Twelve petri dishes containing successive aqueous dilutions of the test compounds, mixed with 10 mL of sterilized Brain Heart Infusion (BHI) agar (Difco 0418-01-5), were prepared. Each plate was inoculated with 1:100 (or 1:10 for slow growing strains (primarily Micrococcus and Streptococcus) dilutions of up to 32 different microorganisms, using a Steers replicator block. The inoculated plates were incubated at 35 37° C. for 20-24 hours. In addition, a control plate, using BHI agar containing no test compound, was prepared and incubated at the beginning and the end of each test.
(§3) An additional plate containing a compound having known susceptibility patterns for the organisms being tested and belonging to the same antibiotic class as the test compounds was also prepared and incubated as a further control, as well as to provide test-to test comparability.
(§4) After incubation, each plate was read. The MIC (minimum inhibitory concentration) is defined as the lowest concentration of test compound yielding no growth, a slight haze, or sparsely isolated colonies on the inoculum spot as compared to the growth control containing no test compound.

[2] = tested on: Enterobacter aerogenes ATCC 13048; conditions: Klebsiella aerogenes
Description: as §1, §2, §3, §4

[3] = tested on: Enterococcus faecium ATCC 8043; conditions: Enterococcus faecium, ATCC8043, 24 h
Description: as §1, §2, §3, §4

[4] = tested on: Escherichia coli DC-2
Description: as §1, §2, §3, §4

[5] = tested on: Escherichia coli H560; conditions: Escherichia coli H560, BHI agar, 20-24 h
Description: as §1, §2, §3, §4

[6] = tested on: Escherichia coli JUHL
Description: as §1, §2, §3, §4

[7] = tested on: Escherichia coli SS; conditions: BHI agar, 20-24 h, read-out: MIC
Description: as §1, §2, §3, §4

[8] = tested on: Klebsiella pneumoniae ATCC 8045
Description: as §1, §2, §3, §4

[9] = tested on: Micrococcus luteus ATCC 4698; conditions: Micrococcus luteus, ATCC4698, 24 h, BHI agar, 20-24 h
Description: as §1, §2, §3, §4

[10] = tested on: Micrococcus luteus ATCC 9341; conditions: 20-24 h
Description: as §1, §2, §3, §4

[11] = tested on: Providencia stuartii CMX 640
Description: as §1, §2, §3, §4

[12] = tested on: Pseudomonas aeruginosa A5007
Description: as §1, §2, §3, §4

[13] = tested on: Pseudomonas aeruginosa BMH10; conditions: BHI agar, 20-24 h
Description: as §1, §2, §3, §4

[14] = tested on: Pseudomonas aeruginosa K799/61; conditions: Pseudomonas aeruginosa K799/61, BHI agar, 20-24 h
Description: as §1, §2, §3, §4

[15] = tested on: Pseudomonas aeruginosa K799/WT
Description: as §1, §2, §3, §4

[16] = tested on: Pseudomonas cepacia 2961; conditions: BHI agar, 20-24 h
Description: as §1, §2, §3, §4

[17] = tested on: Staphylococcus aureus 45 RAR2; conditions: Staphylococcus aureus, 45RAR2, 24 h, BHI agar, 20-24 h
Description: as §1, §2, §3, §4

[18] = tested on: Staphylococcus aureus 45; conditions: BHI agar, 20-24 h, read-out: MIC
Description: as §1, §2, §3, §4

[19] = tested on: Staphylococcus aureus A5177; conditions: Staphylococcus aureus A5177, BHI agar, 20-24 h
Description: as §1, §2, §3, §4

[20] = tested on: Staphylococcus aureus ATCC 6538P; conditions: Staphylococcus aureus, ATCC6538P, 24 h, BHI agar, 20-24 h
Description: as §1, §2, §3, §4

[21] = tested on: Staphylococcus epidermidis 3519; conditions: Staphylococcus epidermidis, 3519, 24 h, BHI agar, 20-24 h
Description: as §1, §2, §3, §4

[22] = tested on: Streptococcus agalactiae CMX 508; conditions: Streptococcus agalactiae, CMX508, 24 h, BHI agar, 20-24 h
Description: as §1, §2, §3, §4

[23] = tested on: Streptococcus bovis A5169; conditions: Streptococcus equinus, BHI agar, 20-24 h
Description: as §1, §2, §3, §4

[24] = tested on: Streptococcus pyrogenes 2548 INDUC; conditions: BHI agar, 20-24 h, read-out: MIC
Description: as §1, §2, §3, §4

[25] = tested on: Streptococcus pyrogenes EES61; conditions: BHI agar, 20-24 h, read-out: MIC
Description: as §1, §2, §3, §4

[26] = tested on: Staphylococcus aureus CMX 503A; conditions: Staphylococcus aureus, CMX503A, 24 h, BHI agar, 20-24 h, read-out: MIC
Description: as §1, §2
as §3, with “comparability. Erythromycin A was used for this purpose.” for “comparability.”
as §4

[27] = tested on: Staphylococcus aureus CMX 553; conditions: Staphylococcus aureus, CMX553, 24 h, BHI agar, 20-24 h, read-out: MIC
Description: as §1, §2
as §3, with “comparability. Erythromycin A was used for this purpose.” for “comparability.”
as §4

[28] = tested on: Staphylococcus aureus CMX 686B; conditions: CMX686B, BHI agar, 20-24 h, read-out: MIC
Description: as §1, §2
as §3, with “comparability. Erythromycin A was used for this purpose.” for “comparability.”
as §4

`CC[C@H]1OC(=O)[C@H](C)[C@@H](O[C@H]2C[C@@](C)(OC)[C@H](N=CN(C)C)[C@H](C)O2)[C@H](C)[C@@H](O[C@@H]2O[C@H](C)C[C@H](N(C)C)[C@H]2O)[C@](C)(O)C[C@@H](C)[C@@H]2O[C@@]1(C)C(=O)[C@H]2C` [Example 9, (4"R,9S)-9-Deoxo-4",11,12-trideoxy-9,12-epoxy-4"-[[(dimethyamino)methylene]amino]-11-oxoerythromycin A] was tested, and the MIC ([1]; Acinetobacter, SPCMX669, 24 h) was 50 mg/L (≈ 64.9 µM), the MIC ([2]; ATCC13048, 24 h) was > 100 mg/L and the MIC [3] was 0.1 mg/L (≈ 0.13 µM). The MIC ([4]; Escherichia coli, DC2, 24 h) was > 100 mg/L, the MIC ([5]; Escherichia coli, H560, 24 h) was 50 mg/L (≈ 64.9 µM) and the MIC ([6]; Escherichia coli, 24 h) was > 100 mg/L. For the same compound, the MIC [7] was 0.78 mg/L (≈ 1.01 µM), the MIC ([8]; Klebsiella pneumoniae, ATCC8045, 24 h) was > 100 mg/L and the MIC [9] was 0.2 mg/L (≈ 0.26 µM). The MIC ([10]; Micrococcus luteus, ATCC9341, 24 h, BHI agar) was 0.02 mg/L (≈ 0.026 µM), the MIC ([11]; Providencia stuartii, CMX640, 24 h) was > 100 mg/L and the MIC ([12]; Pseudomonas aeruginosa, A5007, 24 h) was > 100 mg/L. For the same compound, the MIC ([13]; Pseudomonas aeruginosa, BMH10, 24 h) was > 100 mg/L, the MIC ([14]; Pseudomonas aeruginosa, K799/61, 24 h) was 3.1 mg/L (≈ 4.03 µM) and the MIC ([15]; Pseudomonas aeruginosa, K799/WT, 24 h) was 100 mg/L (≈ 130 µM). For the same compound, the MIC ([16]; Burkholderia cepacia, 2961, 24 h) was > 100 mg/L, the MIC [17] was 0.78 mg/L (≈ 1.01 µM) and the MIC [18] was 0.39 mg/L (≈ 0.506 µM). It also gave an MIC ([19]; Staphylococcus aureus, A5177, 24 h) of 0.78 mg/L (≈ 1.01 µM), an MIC [20] of 0.39 mg/L (≈ 0.506 µM) and an MIC [21] of 0.39 mg/L (≈ 0.506 µM). For the same compound, the MIC [22] was 0.01 mg/L (≈ 0.013 µM), the MIC ([23]; read-out: MIC) was < 0.005 mg/L and the MIC [24] was 6.2 mg/L (≈ 8.05 µM). The MIC [25] was < 0.005 mg/L, the MIC [26] was 0.39 mg/L (≈ 0.506 µM) and the MIC [27] was 0.39 mg/L (≈ 0.506 µM). For the same compound, the MIC [28] was 0.39 mg/L (≈ 0.506 µM).
For `CC[C@H]1OC(=O)[C@H](C)[C@@H](O[C@H]2C[C@@](C)(OC)[C@H](NC(C)=O)[C@H](C)O2)[C@H](C)[C@@H](O[C@@H]2O[C@H](C)C[C@H](N(C)C)[C@H]2O)[C@](C)(O)C[C@@H](C)[C@@H]2O[C@@]1(C)C(=O)[C@H]2C` [Example 10, (4"R,9S) 4"-Acetylamino-9-deoxo-4",11,12-trideoxy-9,12-epoxy-11-oxoerythromycin A], the MIC ([1]; SPCMX669, Acinetobacter SP CMX 669, BHI agar, 20-24 h, read-out: MIC) was 50 mg/L (≈ 66.1 µM), the MIC ([2]; ATCC13048, Enterobacter aerogenes ATCC 13048, BHI agar, 20-24 h, read-out: MIC) was > 100 mg/L and the MIC [3] was 0.2 mg/L (≈ 0.264 µM). The MIC ([4]; DC2, Escherichia coli DC-2, BHI agar, 20-24 h, read-out: MIC) was > 100 mg/L, the MIC ([5]; read-out: MIC) was 100 mg/L (≈ 132 µM) and the MIC ([6]; Escherichia coli JUHL, BHI agar, 20-24 h, read-out: MIC) was > 100 mg/L. For the same compound, the MIC [7] was 0.39 mg/L (≈ 0.515 µM), the MIC ([8]; ATCC8045, Klebsiella pneumoniae ATCC 8045, BHI agar, 20-24 h, read-out: MIC) was > 100 mg/L and the MIC [9] was 0.2 mg/L (≈ 0.264 µM). For the same compound, the MIC ([10]; ATCC9341, BHI agar, read-out: MIC) was 0.05 mg/L (≈ 0.0661 µM), the MIC ([11]; CMX640, Providencia stuartii CMX 640, BHI agar, 20-24 h, read-out: MIC) was > 100 mg/L and the MIC ([12]; Pseudomonas aeruginosa A5007, BHI agar, 20-24 h, read-out: MIC) was > 100 mg/L. The MIC ([13]; read-out: MIC) was > 100 mg/L, the MIC ([14]; read-out: MIC) was 1.56 mg/L (≈ 2.06 µM) and the MIC ([15]; Pseudomonas aeruginosa K799/WT, BHI agar, 20-24 h, read-out: MIC) was > 100 mg/L. The MIC ([16]; Burkholderia cepacia, read-out: MIC) was > 100 mg/L, the MIC [17] was 0.39 mg/L (≈ 0.515 µM) and the MIC [18] was 0.39 mg/L (≈ 0.515 µM). The MIC ([19]; read-out: MIC) was 0.39 mg/L (≈ 0.515 µM), the MIC [20] was 0.39 mg/L (≈ 0.515 µM) and the MIC [21] was 0.39 mg/L (≈ 0.515 µM). The MIC [22] was 0.1 mg/L (≈ 0.132 µM), the MIC ([23]; A5169, 24 h) was 0.2 mg/L (≈ 0.264 µM) and the MIC [24] was 0.78 mg/L (≈ 1.03 µM). The MIC [25] was 0.02 mg/L (≈ 0.0264 µM), the MIC [26] was 0.39 mg/L (≈ 0.515 µM) and the MIC [27] was 0.39 mg/L (≈ 0.515 µM). For the same compound, the MIC [28] was 0.39 mg/L (≈ 0.515 µM).
